{
  "source": "patent US20220213156A1",
  "about": "“Peptides for use in therapy or prophylaxis of Herpesviridae-infections” (priority 2019, published 2022)",
  "key": {"HCMV TB40/E-ΔUL16-eGFP [1]": {"tested_on": "HCMV TB40/E-ΔUL16-eGFP", "experiment": "Infection assay: HFF infected with TB40E-ΔUL16-EGFP and treated with HD5-derived peptides (screening, GFP+/DAPI+)", "assay_type": "cell-based, Human Cytomegalovirus", "details": "75 μM peptide, MOI 0,5, 40 h, compared to other tested peptides", "protocol": "(§1) For the infection assays, the cells were sown in 96-well plates. Human foreskin fibroblasts (HFF) and ARPE-19 cells (Adult Retinal Pigment Epithelial cell line-19) were seeded with 10 000 cells in 200 μl medium per well, macrophages with 20 000 cells in 200 μl medium per well and THP with 50 000 cells in 200 μl per well. The cells were incubated overnight at 37° C. and 5% CO2 and treated the following day. A medium change to P/S-free medium was performed to avoid interaction between the antibiotics used and the peptide sequences. Afterwards the corresponding peptides were added in different concentrations and immediately afterwards the virus, the final volume was 100 μl per well. The virus of the strain TB40/E-ΔUL16-eGFP was used. TB40-ΔUL16-eGFP is a derivative of the strain TB40, in which the majority of the open reading frame UL16 has been replaced by the open reading frame of eGFP, essentially as described in detail for a homologous mutant of strain AD169 (Tischer et al., “Two-step red-mediated recombination for versatile high-efficiency markerless DNA manipulation in Escherichia coli”, Biotechniques, (2006), 40(2):191-7). […] The required volume of the virus stock was calculated using the titer according to the following formula: […]"}, "HCMV TB40/E-ΔUL16-eGFP [2]": {"tested_on": "HCMV TB40/E-ΔUL16-eGFP", "experiment": "Infection assay on different cell types (HFF, ARPE-19, THP-1) with TB40E-ΔUL16-EGFP, IE+/DAPI+", "assay_type": "cell-based, Human Cytomegalovirus", "details": "40 h", "protocol": "as §1"}},
  "note": "Residues, ends and D or L forms follow the SMILES beside them.",
  "data": [
    {"smiles": "C[C@H](N)C(=O)N[C@H](C(=O)N[C@@H](CS)C(=O)N[C@@H](Cc1ccc(O)cc1)C(=O)N[C@@H](CS)C(=O)N[C@@H](CCCNC(=N)N)C(=O)N[C@H](C(=O)NCC(=O)N[C@@H](CCCNC(=N)N)C(=O)O)[C@@H](C)O)[C@@H](C)O", "note": "[HD5 (1-9), ATCYCRTGR] (H-ATCYCRTGR-OH; N-terminus and C-terminus assumed)", "values": [
      {"measurement": "antiviral effect (infection rate GFP+/DAPI+)", "setting": "HCMV TB40/E-ΔUL16-eGFP [1]", "value": "excellent antiviral effect"},
      {"measurement": "concentration from which HCMV infection is inhibited", "setting": "HCMV TB40/E-ΔUL16-eGFP [2]", "value": "≥ 50", "unit": "µM"}
    ]}
  ]
}
